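Cells were grown in 96-well plates and exposed to each compound for 48 hours at five concentrations; endpoints were interpolated linearly between bracketing concentrations, or set to the highest concentration if not reached. The concentration for 50% growth inhibition is given as GI50. The concentration for full growth arrest is given as TGI.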
What was measured:
Test in all cases: growth of human tumour cells (NCI), 48 h
[1] = system: MDA-MB-435
[2] = system: OVCAR-5 ovarian
[3] = system: SF-295 CNS
[4] = system: MDA-MB-231 breast
[5] = system: NCI-H460 lung
[6] = system: RPMI-8226 leukemia
[7] = system: TK-10 renal
[8] = system: HOP-62 NSCLC
[9] = system: UACC-62 melanoma
[10] = system: HOP-92 NSCLC

Cc1[nH]n(-c2cccc(Cl)c2)c(=O)c1/C=C1\C=c2ccccc2=CC1=O
GI50 [1]: > 100 µM
TGI [1]: > 100 µM
GI50 [2]: > 100 µM
TGI [2]: > 100 µM
GI50 [3]: 23.2 µM
TGI [3]: > 100 µM
GI50 [4]: 36.1 µM
TGI [4]: > 100 µM
GI50 [5]: > 100 µM
TGI [5]: > 100 µM
GI50 [6]: > 100 µM
TGI [6]: > 100 µM
GI50 [7]: 35 µM
TGI [7]: > 100 µM
GI50 [8]: 31.4 µM
TGI [8]: > 100 µM
GI50 [9]: 39.8 µM
TGI [9]: > 100 µM

Cc1ccc(S(=O)(=O)CC2(Br)CCc3ccccc3C2=O)cc1 (centres undefined)
TGI [1]: 40.3 µM
TGI [10]: > 100 µM
TGI [2]: > 100 µM
TGI [3]: > 100 µM
TGI [4]: 84.9 µM
TGI [5]: > 100 µM
TGI [6]: > 100 µM
TGI [7]: 85.7 µM
TGI [8]: > 100 µM
TGI [9]: 67.9 µM

CC(=O)C(C=O)C(C)=O.CC(=O)CC(C)=O.CC(=O)CC(C)=O.[Ru]
GI50 [1]: 43.5 µM
TGI [1]: > 100 µM
GI50 [10]: 17.4 µM
TGI [10]: 94.1 µM
GI50 [2]: 32.2 µM
TGI [2]: > 100 µM
GI50 [3]: 16.2 µM
TGI [3]: 68 µM
GI50 [4]: 15.7 µM
TGI [4]: 68.8 µM
GI50 [5]: 28.5 µM
TGI [5]: > 100 µM
GI50 [7]: 38.9 µM
TGI [7]: > 100 µM
GI50 [8]: 32.4 µM
TGI [8]: > 100 µM
GI50 [9]: 0.589 µM
TGI [9]: 19.1 µM

COC(CC1(OC)OC(=O)C=C1N)OC (centres undefined)
TGI [10]: > 100 µM
TGI [2]: > 100 µM
TGI [3]: > 100 µM
TGI [5]: > 100 µM
TGI [6]: > 100 µM
TGI [7]: > 100 µM
TGI [8]: > 100 µM
TGI [9]: > 100 µM

CCCc1n(Cc2ccc3ccccc3n2)cc[n+]1Cc1ccc2ccccc2n1
GI50 [1]: 1.13 µM
TGI [1]: 11.9 µM
GI50 [10]: 0.56 µM
TGI [10]: 4.18 µM
GI50 [2]: 3.72 µM
TGI [2]: 34.2 µM
GI50 [3]: 3.57 µM
TGI [3]: 15.7 µM
GI50 [4]: 2.11 µM
TGI [4]: 8.47 µM
GI50 [5]: 2.44 µM
TGI [5]: 11.5 µM
GI50 [6]: 0.362 µM
TGI [6]: 7.41 µM
GI50 [7]: 2.84 µM
TGI [7]: 12.7 µM
GI50 [8]: 4.17 µM
TGI [8]: 17.9 µM
GI50 [9]: 1.12 µM
TGI [9]: 6.19 µM

CCCCCCSc1nc(COC(=O)NC)c(COC(=O)NC)n1C
TGI [1]: > 100 µM
TGI [2]: > 100 µM
TGI [3]: > 100 µM
TGI [4]: > 100 µM
TGI [5]: > 100 µM
TGI [6]: > 100 µM
TGI [7]: > 100 µM
TGI [8]: > 100 µM
TGI [9]: > 100 µM

CC1CC(c2ccc(Cl)c(Cl)c2)=Nc2ccccc2S1 (centres undefined)
TGI [10]: > 100 µM
TGI [2]: > 100 µM
TGI [3]: > 100 µM
TGI [5]: > 100 µM
TGI [6]: > 100 µM
TGI [7]: > 100 µM
TGI [8]: > 100 µM
TGI [9]: > 100 µM

NC(=O)c1cc([N+](=O)[O-])cc([N+](=O)[O-])c1
TGI [10]: > 100 µM
TGI [2]: > 100 µM
TGI [3]: > 100 µM
TGI [5]: > 100 µM
TGI [6]: > 100 µM
TGI [7]: > 100 µM
TGI [8]: > 100 µM
TGI [9]: > 100 µM

COC(=O)C1=C(\O)C[C@@]2(C)CC[C@@H](C(=O)OC)C2C/C=C\1C(=O)OC (some centres undefined)
TGI [10]: > 100 µM
TGI [2]: > 100 µM
TGI [3]: > 100 µM
TGI [5]: > 100 µM
TGI [6]: > 100 µM
TGI [7]: > 100 µM
TGI [8]: > 100 µM
TGI [9]: > 100 µM

O=C(/C=C/c1ccc(O)cc1)c1cc(Cl)ccc1O
TGI [10]: > 100 µM
TGI [3]: > 100 µM
TGI [5]: > 100 µM
TGI [7]: > 100 µM
TGI [8]: > 100 µM
TGI [9]: > 100 µM

C#Cc1ccc(-n2c(/C=C/c3ccc4ccccc4c3)nc3ncccc3c2=O)cc1
GI50 [1]: 2.06 µM
TGI [1]: > 100 µM
GI50 [10]: 1.63 µM
TGI [10]: 6.89 µM
GI50 [2]: 6.88 µM
TGI [2]: > 100 µM
GI50 [4]: 3.74 µM
TGI [4]: > 100 µM
GI50 [5]: 2.88 µM
TGI [5]: > 100 µM
GI50 [6]: 0.451 µM
TGI [6]: > 100 µM
GI50 [7]: 4.04 µM
TGI [7]: > 100 µM
GI50 [8]: 7.45 µM
TGI [8]: > 100 µM
GI50 [9]: 2.49 µM
TGI [9]: > 100 µM

O=C(CSc1ncc(-c2ccccc2)n1-c1ccccc1)Nc1ccc(-c2nc3ccccc3s2)cc1
GI50 [10]: 22.6 µM
TGI [10]: 83.1 µM
GI50 [2]: > 100 µM
TGI [2]: > 100 µM
GI50 [3]: 3.53 µM
TGI [3]: > 100 µM
GI50 [4]: 21.4 µM
TGI [4]: > 100 µM
GI50 [5]: 3.61 µM
TGI [5]: > 100 µM
GI50 [6]: > 100 µM
TGI [6]: > 100 µM
GI50 [7]: 34.4 µM
TGI [7]: > 100 µM
GI50 [8]: 5.68 µM
TGI [8]: > 100 µM
GI50 [9]: 22.6 µM
TGI [9]: > 100 µM

c1ccc2c(c1)N=C(c1ccc3ccccc3c1)CC(c1cccc3ccccc13)S2 (centres undefined)
TGI [2]: > 100 µM
TGI [3]: > 100 µM
TGI [5]: > 100 µM
TGI [6]: 52.5 µM
TGI [7]: > 100 µM
TGI [8]: > 100 µM
TGI [9]: > 100 µM

COc1ccc2c(c1)C(=O)c1c-2c(N2CCN(C(=O)CCNCCNCCO)CC2)nc2ccccc12
GI50 [1]: 21.7 µM
TGI [1]: 47.8 µM
GI50 [10]: 3.77 µM
TGI [10]: 18.2 µM
GI50 [2]: 18.3 µM
TGI [2]: 34.4 µM
GI50 [3]: 18.8 µM
TGI [3]: 39.3 µM
GI50 [4]: 13.5 µM
TGI [4]: 30.9 µM
GI50 [5]: 4.61 µM
TGI [5]: 19.6 µM
GI50 [6]: 11.3 µM
TGI [6]: 33.2 µM
GI50 [7]: 22.5 µM
TGI [7]: 43.1 µM
GI50 [9]: 21.3 µM
TGI [9]: 38.2 µM

N#CC1C(=O)NC(=O)C1=O (centres undefined)
TGI [10]: > 100 µM
TGI [2]: > 100 µM
TGI [3]: > 100 µM
TGI [5]: > 100 µM
TGI [6]: > 100 µM
TGI [7]: > 100 µM
TGI [8]: > 100 µM
TGI [9]: > 100 µM

CCCCCCCCCCCC(=O)OC(COC(N)=O)COc1ccc(Cl)cc1 (centres undefined)
TGI [3]: 40 µM
TGI [5]: 47.4 µM
TGI [6]: 47 µM
TGI [7]: > 100 µM
TGI [8]: > 100 µM
TGI [9]: 41.3 µM

COC(=O)NC(=O)c1cn(C2CCCCC2)c(=O)[nH]c1=O
TGI [10]: > 100 µM
TGI [2]: > 100 µM
TGI [3]: > 100 µM
TGI [5]: > 100 µM
TGI [6]: > 100 µM
TGI [7]: > 100 µM
TGI [8]: > 100 µM
TGI [9]: > 100 µM

O=C1N=C(Nc2nc(-c3csc(NC4=NC(=O)/C(=C\c5ccc(Cl)cc5)S4)n3)cs2)S/C1=C/c1ccc(Cl)cc1
GI50 [1]: 12.8 µM
TGI [1]: > 50 µM
GI50 [10]: 8.61 µM
TGI [10]: 28.5 µM
GI50 [2]: 25.8 µM
TGI [2]: > 50 µM
GI50 [3]: 17.4 µM
TGI [3]: > 50 µM
GI50 [4]: 10.2 µM
TGI [4]: 35 µM
GI50 [5]: 7.86 µM
TGI [5]: > 50 µM
GI50 [7]: 8.44 µM
TGI [7]: 25.6 µM
GI50 [8]: 3.29 µM
TGI [8]: 18 µM
GI50 [9]: 6.03 µM
TGI [9]: 16.4 µM

Source: PubChem BioAssay (NCI)
